Measured values reported in PMC8999917, “Structure–Activity Relationship of Synthetic Ginkgolic Acid Analogs for Treating Type 2 Diabetes by PTPN9 Inhibition” (International Journal of Molecular Sciences, 2022).

Assays:
[1] = system: Akt phosphorylation in PA-induced insulin-resistant C2C12 cells; assay: Palmitic acid-induced insulin resistance in C2C12 myotubes (p-Akt); type: cell-based, mouse; settings: PA (250 µM, 16 h)-treated C2C12, 5 μM compound for 30 min with 100 nM insulin
Procedure: Since insulin plays an important role in regulating glucose metabolism through the redistribution of GLUT4 from intracellular vesicles to the cell surface, it is important to describe the interaction between 1e and insulin in the Akt pathway. […] Next, we evaluated the protective effects of 1e against PA-induced insulin resistance in C2C12 myotubes. To generate an insulin resistance model, C2C12 myotubes were treated with 250 µM PA in a serum-free medium for 16 h. Akt phosphorylation levels in PA-treated C2C12 cells decreased by 50% compared to levels in normal C2C12 cells (Figure 6C). Furthermore, in the presence of insulin and GA, Akt phosphorylation levels decreased only by 30% compared to levels in normal cells. […] In addition, the GA analogs induced no cytotoxic effects in C2C12 muscle cells (data not shown). […] The expression levels of glucose uptake-related proteins were determined via Western blotting, as previously described. In brief, differentiated 3T3-L1 cells were plated in six-well plates at a 1.5 × 10^4 cells/well density in a final volume of 2 mL. […] Secondary antibodies were added to the membranes at a concentration of 1:2000 for 1 h at room temperature, and immunoreactive bands were detected via ECL (GE Healthcare Korea Co., Ltd., Incheon, Korea). […]

DUSP9 = target: T1, DUSP9 (Homo sapiens, UniProt Q99956); assay: DUSP9 enzyme inhibition with DiFMUP substrate; type: biochemical; settings: DiFMUP 90 µM, DUSP9 200 nM; NA: no activity
T1 construct: made in house; host or cells: Escherichia coli Rosetta (DE3)
T1 sequence (Q99956 1-384): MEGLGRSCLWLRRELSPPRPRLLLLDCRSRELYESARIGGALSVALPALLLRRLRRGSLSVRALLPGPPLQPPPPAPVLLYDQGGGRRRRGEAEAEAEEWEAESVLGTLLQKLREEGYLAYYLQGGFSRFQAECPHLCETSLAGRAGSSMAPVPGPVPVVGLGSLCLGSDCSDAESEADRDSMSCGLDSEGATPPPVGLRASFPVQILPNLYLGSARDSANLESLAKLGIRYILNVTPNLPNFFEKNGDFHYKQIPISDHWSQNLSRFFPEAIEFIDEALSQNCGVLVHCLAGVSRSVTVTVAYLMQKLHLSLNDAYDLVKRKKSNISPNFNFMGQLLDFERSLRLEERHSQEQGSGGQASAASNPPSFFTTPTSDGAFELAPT
Procedure: (§1) The purification and kinetic analyses of PTPN9 and DUSP9 (Ser277–581) were performed following methods described in the literature, with slight modifications. PAGE analysis data and enzyme kinetic constants are presented in Figure S1 and Table S1, respectively. Enzyme activity in the presence or absence of the compounds was measured using DiFMUP, a representative PTP fluorogenic substrate. First, the inhibitory effects of compounds 1–3 were evaluated using 50 µM PTPN9 and 20 µM DUSP9. There was an increase in the inhibitory activity of compound 1 for both enzymes as the number of CH2 units increased from 9 to 14 (Figure 2A,B).
(§2) Next, the IC50 values of the compounds, which induce a 50% inhibition of DiFMUP hydrolytic enzyme activity, were determined (Table 1). The IC50 values were determined from the dose–response enzyme inhibition curves of each compound. The dose–response curves for compounds 1e and 1f against PTPN9 and DUSP9, respectively, are presented in Figure 2C,D. Dose–response curves were also obtained for the other compounds (Figures S2 and S3).
(§3) The methods employed for PTP overexpression and purification have been described in a previous study. In brief, human PTPN9 and DUSP9 were cloned into a pET28a vector (Merk Millipore, Darmstadt, Germany) containing a hexahistidine (His6) tag or a maltose-binding protein (MBP) tag in its N-terminus (see Supplementary Materials). Recombinant genes were separately transformed into Escherichia coli Rosetta (DE3) (Merk Millipore, Darmstadt, Germany), and the overexpression of each gene was induced via the addition of 0.1 mM IPTG (Ducherfa Biochemie, Haarlem, RV, USA). After 16 h of incubation at 18 °C, cell pellets were obtained via centrifugation (3570× g at 4 °C for 15 min), resuspended in lysis buffer (50 mM Tris, pH: 7.5, 500 mM NaCl, 5% glycerol, 0.025% 2-mercaptoethanol, and 1 mM phenyl-methylsulfonyl fluoride (PMSF)), and lysed by ultrasonication. Subsequently, cell lysates were centrifuged at 29,820× g for 30 min at 4 °C; then, the supernatant was collected and incubated with a cobalt affinity resin (TALON® Metal Affinity Resin, Takara Korea, Seoul, Korea). After 1 h of incubation at 4 °C, the desired proteins were eluted by adding the lysis buffer supplemented with 100 mM imidazole. Samples were stored at –80 °C until use.
(§4) The enzymatic activities of purified PTPN9 and DUSP9 were measured using 6,8-difluoro-4-methylumbelliferyl phosphate (DiFMUP), the most widely used fluorogenic PTP substrate in the literature. To determine KM values, PTPN9 (0.15 nM) and DUSP9 (200 nM) were added to a reaction buffer (20 mM Bis-tris, pH: 7.0, 150 mM NaCl, 2.5 mM dithiothreitol (DTT), and 0.01% Triton X-100) containing DiFMUP (800, 400, 200, 100, 50, 25, 12.5, or 6.25 μM) in a 96-well black plate. The final reaction volume was 100 µL. The fluorescence intensity was continuously monitored for 10 min (Ex/Em = 355/460 nm) on a Victor™ X4 multilabel plate reader (Perkin Elmer, Norwalk, CT, USA). KM values were obtained using Lineweaver–Burk plots analysis.
(§5) To evaluate the enzyme inhibitory effects of GA and its analogs, 10 µl of the enzyme stock solution (1.5 nM PTPN9 and 2 µM DUSP9) in the reaction buffer was added into the mixture of DiFMUP (to a final concentration of 220 µM and 90 µM for PTPN9 and DUSP9, respectively) and each compound (to a final concentration of 50 µM and 20 µM for PTPN9 and DUSP9, respectively) was added to the reaction buffer. Enzyme activity was measured as described above. Half-inhibitory concentration (IC50) values were determined under similar conditions, except for the concentrations of the inhibitors (200, 100, 50, 25, 12.5, 6.25, or 3.125 µM for PTPN9 and 25, 12.5, 6.25, 3.125, 1.563, 0.782, or 0.391 µM for DUSP9). The dose-dependent curve was fitted to the four-parameter logistic regression equation, (y = a + (b – a)/(1 + (x/c)^d), to obtain IC50 values using the Kaleida Graph software Ver. 4.1.3. (Synergy Software Inc, PA, USA).

PTPN9 = target: T2, PTPN9 (Homo sapiens, UniProt P43378); assay: PTPN9 enzyme inhibition with DiFMUP substrate; type: biochemical; settings: DiFMUP 220 µM, PTPN9 0.15 nM; NA: no activity
T2 construct: made in house; host or cells: Escherichia coli Rosetta (DE3)
T2 sequence (P43378 277-581): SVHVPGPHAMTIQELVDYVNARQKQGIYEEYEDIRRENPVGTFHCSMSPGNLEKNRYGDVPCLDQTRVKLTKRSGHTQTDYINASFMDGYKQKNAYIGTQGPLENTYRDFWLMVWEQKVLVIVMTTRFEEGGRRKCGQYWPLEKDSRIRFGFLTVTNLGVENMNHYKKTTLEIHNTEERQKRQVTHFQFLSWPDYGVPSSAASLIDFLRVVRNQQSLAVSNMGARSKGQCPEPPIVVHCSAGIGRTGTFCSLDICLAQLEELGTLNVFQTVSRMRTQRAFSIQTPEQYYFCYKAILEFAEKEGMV
Procedure: as §1, §2, §3, §4, §5

In the case of `CCCCCCCCCCCCCc1cccc(O)c1C(=O)O` [GA, Ginkgolic acid (C13:0), reference compound], the “decrease of Akt phosphorylation levels compared to normal cells” value [1] is reported as 30%, the IC50 (DUSP9) is reported as 3.64 ± 0.11 µM and the IC50 (PTPN9) is reported as 21.8 ± 0.45 µM.
